Measured values reported in US20230406865A1, “CRYSTAL FORM OF FREE BASE OF INHIBITOR CONTAINING BICYCLIC RING DERIVATIVE AND PREPARATION METHOD AND APPLICATION OF CRYSTAL FORM” (SHANGHAI HANSOH BIOMEDICAL CO., LTD., priority 2020, published 2023).

Assays:
hERG = hERG (Homo sapiens, UniProt Q12809); assay: cell-based
Description: Terfenadine (Sigma-Aldrich, MKBX6318V); • HEK293-hERG cell line (human embryonic kidney cells stably expressing hERG channels), provided by Academy of Military Medical Sciences.
Human embryonic kidney cells (HEK293) stably expressing hERG channels were cultured in DMEM medium (DMEM, HyClone) in a 37° C. cell incubator containing 5% CO2. About 10% fetal bovine serum (FBS, gibco) was added to the cell culture medium.
Human embryonic kidney cells stably expressing hERG channels (HEK293-hERG) were used for the experiment. HEK293 cells were clamped with the Multi Clamp 700B manual patch clamp system to form a whole-cell voltage clamp pattern, and hERG current was induced with the corresponding voltage. […] The peak values of tail current recorded under the solvent control were taken as 100%, and the data of positive control and test samples were standardized. Curve fitting and IC50 calculation were done in the software GraphPad Prism 5.00 using the standard Hill equation.

[1] = system: phosphorylation of ERK, a downstream signal factor of TT cells; assay: Inhibition of ERK phosphorylation in TT cells (Western Blot); format: cell-based, human; details: for inhibition of ERK phosphorylation: 2 hours, TT cells; for inhibition of phosphorylation level of ERK in TT cells: 3.7-300 nM, 2 hours at 37° C., Western Blot
Source text: 2.2 Experimental Reagents: • pERK antibody was purchased from Cell Signaling Technology Company, the article number was 43705; • Total ERK antibody was purchased from Cell Signaling Technology Company, the article number was 4696S; • The internal reference GAPDH was purchased from Cell Signaling Technology Company, the article number was 51745; • The fluorescent secondary antibodies were purchased from LI-COR Company, the article numbers were P/N 925-68071 and P/N 926-32210.
In this experiment, the inhibitory effect of compounds on the phosphorylation level of ERK, a downstream signaling factor in TT cells was measured by Western Blot method. When TT cells were cultured to the appropriate fusion level, the cells were collected and adjusted to the appropriate cell concentration using complete medium, the cell suspension was spread in a 24-well plate, 1 mL per well, and placed in the wall of a 37° C., 5% CO2 incubator overnight, and compound dilutions of different concentrations (3.7 nM, 11.1 nM, 33.3 nM, 100 nM, 300 nM) were added at 37° C. and acted for 2 hours; the cell supernatant was aspirated, washed one time with PBS, and the proteins were collected with lysate; after protein denaturation, Western blot experiments were performed: performing protein electrophoresis at 120V for approximately 75 minutes, followed by 45 minutes of transfer to PVDF membranes at 10V with a semi-dry transfer instrument, enclosing at 5% BSA for 1 hour at room temperature, and then PVDF membranes were cut into strips of appropriate size and incubated with prepared antibody dilutions overnight at 4° C. and washed 6 times with TBST, followed by incubating with goat anti-mouse secondary antibody and goat anti-rabbit secondary antibody for 1 hour at room temperature, and the membrane was washed 6 times with TBST for imaging in the Biorad ChemiDoc™ MP Imaging System.
The inhibitory effect of compounds on ERK phosphorylation levels in TT cells at different concentrations was determined by detecting protein bands.

[2] = system: xenograft tumor of human myeloid thyroid cancer cell TT; assay: Subcutaneous xenograft tumor model of human myeloid thyroid cancer cell TT; format: in vivo, BALB/c nude mice
Description: BALB/c nude mice, female, 6-8 weeks old, weighing 18-22 g, provided by Shanghai Lingchang Biotechnology Co., Ltd.
TT cells were cultured in vitro in a monolayer under the following conditions: F-12K medium with 20% heat-inactivated fetal bovine serum and 1% penicillin-streptomycin double antibodies at 37° C. and 5% CO2. Digestion with trypsin-EDTA was performed to treat the passage twice a week. When cells were in an exponential growth period, cells were collected, counted and inoculated.
TT cells were collected when they were full in a logarithmic growth period, ensuring vitality over 90%. 0.2 mL of cell suspension containing about 1×10^7 of TT cells (cells suspended in basic F-12K medium and added with 50% Matrigel) was inoculated subcutaneously into the right back […] of each mouse when the mean volume of the tumor reached about 150-200 mm^3 to start group administration.
1. The day of grouping was day 0 (DO). The interval of BID administration was 6-8 h/18-16 h. The first administration was given in the afternoon of day DO and the last administration was given in the morning of day D21.
2. Administration volume: 10 μL/g according to the body weight of nude mice.
Animal grouping: animals were weighed before administration and the tumor volume was measured. Animals were randomly grouped according to tumor volume (randomized grouping design) with 5 animals per group.
Experimental index: the diameter of tumor was measured by vernier caliper twice a week. The tumor volume was calculated by the formula: V=a×b^2/2, a and b denote the long and short diameter of the tumor, respectively. The tumor inhibition efficacy of the compounds was evaluated by TGI (%). TGI (%)=(1-(TVTreatment/Dx−TVTreatment/D1)/(TVControl/Dx−TVControl/D1))×100%.

Chain of hERG (Q12809 whole entry): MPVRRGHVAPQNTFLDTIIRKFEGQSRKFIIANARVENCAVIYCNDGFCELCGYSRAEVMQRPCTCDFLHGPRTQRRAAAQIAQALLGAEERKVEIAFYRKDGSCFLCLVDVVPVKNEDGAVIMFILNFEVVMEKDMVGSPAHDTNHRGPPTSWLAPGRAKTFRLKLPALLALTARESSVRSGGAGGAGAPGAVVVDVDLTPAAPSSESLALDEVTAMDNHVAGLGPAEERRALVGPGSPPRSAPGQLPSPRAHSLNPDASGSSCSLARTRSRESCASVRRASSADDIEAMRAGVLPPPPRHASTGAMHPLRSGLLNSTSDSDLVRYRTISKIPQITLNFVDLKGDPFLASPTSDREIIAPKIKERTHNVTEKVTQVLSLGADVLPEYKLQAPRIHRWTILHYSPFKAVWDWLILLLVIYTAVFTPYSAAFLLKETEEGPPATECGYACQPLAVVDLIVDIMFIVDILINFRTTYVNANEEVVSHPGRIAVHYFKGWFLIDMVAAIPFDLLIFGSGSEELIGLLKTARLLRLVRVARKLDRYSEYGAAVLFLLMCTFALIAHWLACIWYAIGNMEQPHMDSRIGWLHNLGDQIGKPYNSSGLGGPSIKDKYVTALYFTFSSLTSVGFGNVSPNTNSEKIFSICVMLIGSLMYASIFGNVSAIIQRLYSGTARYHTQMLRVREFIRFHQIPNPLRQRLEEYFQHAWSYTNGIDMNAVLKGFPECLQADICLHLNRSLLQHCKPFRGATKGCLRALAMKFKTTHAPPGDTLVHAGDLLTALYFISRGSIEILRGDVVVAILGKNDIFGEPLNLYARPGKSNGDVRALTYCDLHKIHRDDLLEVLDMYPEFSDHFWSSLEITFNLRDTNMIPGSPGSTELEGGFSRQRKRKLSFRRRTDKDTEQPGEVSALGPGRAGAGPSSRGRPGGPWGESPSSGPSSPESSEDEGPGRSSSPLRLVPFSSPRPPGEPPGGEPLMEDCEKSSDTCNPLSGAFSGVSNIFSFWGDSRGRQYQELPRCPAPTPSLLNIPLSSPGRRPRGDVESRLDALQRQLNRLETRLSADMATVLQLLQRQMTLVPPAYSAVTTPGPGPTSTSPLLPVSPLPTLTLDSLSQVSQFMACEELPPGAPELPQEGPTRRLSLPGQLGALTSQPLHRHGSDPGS

| SMILES | inhibition of ERK phosphorylation ([1]; 3.7 nM) | inhibition of ERK phosphorylation ([1]; 11.1 nM) | inhibition of ERK phosphorylation ([1]; 33.3 nM) | inhibition of ERK phosphorylation ([1]; 100 nM) | inhibition of ERK phosphorylation ([1]; 300 nM) | inhibition of phosphorylation level of ERK in TT cells [1] | also measured |
| --- | --- | --- | --- | --- | --- | --- | --- |
| C#C[C@@](C)(O)COc1cc(-c2ccc(N3CC4CC(C3)N4Cc3ccc(OC)nc3)nc2)c2c(C#N)cnn2c1 [Embodiment 63, 6-(((R)-2-hydroxy-2-methylbut-3-yn-1-yl)oxy)-4-(6-(6-((6-methoxypyridin-3-yl)methyl)-3,6-diazabicyclo[3.1.1]heptan-3-yl)pyridin-3-yl)pyrazolo[1,5-a]pyridine-3-carbonitrile] | about half | almost completely inhibited | almost completely inhibited | almost completely inhibited | almost completely inhibited | significantly inhibit | IC50 (hERG): 16.9 µM; inhibition at 0.1 μmol/L (hERG; human): 3.24%; inhibition at 1 μmol/L (hERG; human): 8.39%; inhibition at 3 μmol/L (hERG; human): 12.7%; inhibition at 10 μmol/L (hERG; human): 35.4%; inhibition at 30 μmol/L (hERG; human): 58.8% |
| COc1ncc(CN2C3CC2CN(c2ccc(-c4cc(C#CC(C)(C)O)cn5ncc(C#N)c45)cn2)C3)cc1F [Embodiment 18, 4-(6-(6-((5-Fluoro-6-methoxypyridin-3-yl)methyl)-3,6-diazabicyclo[3.1.1]heptan-3-yl)pyridin-3-yl)-6-(3-hydroxy-3-methylbut-1-yn-1-yl)pyrazolo[1,5-a]pyridine-3-carbonitrile] | – | – | – | – | – | – | Tumor volume (mean ± SEM) d 0 ([2]; 30 mg/kg oral BID): 199.73 ± 24.07 mm^3; Tumor inhibition rate/TGI d 22 ([2]; 30 mg/kg oral BID): 99.64%; Tumor volume (mean ± SEM) d 22 ([2]; 30 mg/kg oral BID): 203.56 ± 31.74 mm^3 |
| C#C[C@](C)(O)COc1cc(-c2ccc(N3CC4CC(C3)N4Cc3ccc(OC)nc3)nc2)c2c(C#N)cnn2c1 [Embodiment 64, 6-(((S)-2-hydroxy-2-methylbut-3-yn-1-yl)oxy)-4-(6-(6-((6-methoxypyridin-3-yl)methyl)-3,6-diazabicyclo[3.1.1]heptan-3-yl)pyridin-3-yl)pyrazolo[1,5-a]pyridine-3-carbonitrile] | the inhibition level was weaker | half | the degree of inhibition was reduced | completely inhibit | completely inhibit | significantly inhibit | – |
| COc1ccc(CN2C3CC2CN(c2ccc(-c4cc(N5CC(C)(C#N)C5)cn5ncc(C#N)c45)cn2)C3)cn1 [Embodiment 77, 6-(3-Cyano-3-methylazetidin-1-yl)-4-(6-(6-((6-methoxypyridin-3-yl)methyl)-3,6-diazabicyclo[3.1.1]heptan-3-yl)pyridin-3-yl)pyrazolo[1,5-a]pyridine-3-carbonitrile] | – | – | – | – | – | – | Tumor volume (mean ± SEM) d 0 ([2]; 10 mg/kg oral BID): 205.23 ± 16.57 mm^3; Tumor inhibition rate/TGI d 22 ([2]; 10 mg/kg oral BID): 129.77%; Tumor volume (mean ± SEM) d 22 ([2]; 10 mg/kg oral BID): 144.14 ± 8.95 mm^3 |
